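In this assay, cells in 96-well plates receive the compound at five concentrations for 48 hours. Endpoints are linearly interpolated between the surrounding concentrations. At the GI50, growth is halved.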 The source made the active and inactive calls. Cut-off read from the data, not from the text of the source: active = GI50 up to about 1.1 µM and inactive = higher.
Experiments:
Assay in all cases: DTP human tumour cell line panel, 48 h
HCT-116 = test system: HCT-116
MDA-N = test system: MDA-N
HOP-62 = test system: HOP-62
MOLT-4 = test system: MOLT-4
SN12C = test system: SN12C
NCI-H522 = test system: NCI-H522
CCRF-CEM = test system: CCRF-CEM
OVCAR-4 = test system: OVCAR-4
NCI-H226 = test system: NCI-H226
A498 = test system: A498
HL-60 = test system: HL-60
MDA-MB-435 = test system: MDA-MB-435
T47D = test system: T47D
U-251 = test system: U-251
RPMI-8226 = test system: RPMI-8226
PC-3 = test system: PC-3
SK-MEL-2 = test system: SK-MEL-2
M14 = test system: M14
NCI-H23 = test system: NCI-H23
A549 = test system: A549
DU-145 = test system: DU-145
SK-OV-3 = test system: SK-OV-3
NCI/ADR-RES = test system: NCI/ADR-RES
TK-10 = test system: TK-10
SW-620 = test system: SW-620
OVCAR-3 = test system: OVCAR-3
CAKI-1 = test system: CAKI-1
SNB-75 = test system: SNB-75
KM12 = test system: KM12
SR = test system: SR
HT-29 = test system: HT-29
LOX IMVI = test system: LOX IMVI
HCC 2998 = test system: HCC 2998
ACHN = test system: ACHN
SF-539 = test system: SF-539
OVCAR-5 = test system: OVCAR-5
OVCAR-8 = test system: OVCAR-8
IGROV-1 = test system: IGROV-1
UO-31 = test system: UO-31
NCI-H460 = test system: NCI-H460
UACC-62 = test system: UACC-62
UACC-257 = test system: UACC-257
HCT-15 = test system: HCT-15
SNB-19 = test system: SNB-19
K562 = test system: K562
HOP-92 = test system: HOP-92
COLO 205 = test system: COLO 205
Malme-3M = test system: Malme-3M
786-0 = test system: 786-0
SK-MEL-28 = test system: SK-MEL-28
BT-549 = test system: BT-549
MDA-MB-231 = test system: MDA-MB-231
SF-295 = test system: SF-295
SK-MEL-5 = test system: SK-MEL-5
Hs-578T = test system: Hs-578T
MCF7 = test system: MCF7
RXF 393 = test system: RXF 393
SF-268 = test system: SF-268
EKVX = test system: EKVX

In the case of `CC1(C)O[C@@H]2C[C@H]3[C@@H]4C[C@H](F)C5=CC(=O)C=C[C@]5(C)[C@@]4(F)[C@@H](O)C[C@]3(C)[C@]2(C(=O)CO)O1` [FLUOCINOLONE ACETONIDE], the GI50 (HCT-116) is reported as > 100 µM (inactive), the GI50 (MDA-N) is reported as > 100 µM (inactive) and the GI50 (HOP-62) is reported as > 100 µM (inactive). For the same compound, the GI50 (MOLT-4) was > 83.8 µM (inactive), the GI50 (SN12C) was 12 µM (inactive) and the GI50 (NCI-H522) was > 100 µM (inactive). For the same compound, the GI50 (CCRF-CEM) was < 0.01 µM (active), the GI50 (OVCAR-4) was > 89.1 µM (inactive) and the GI50 (NCI-H226) was > 85.1 µM (inactive). The GI50 (A498) was > 100 µM (inactive), the GI50 (HL-60) was > 100 µM (inactive) and the GI50 (MDA-MB-435) was > 100 µM (inactive). For the same compound, the GI50 (T47D) was > 100 µM (inactive), the GI50 (U-251) was > 100 µM (inactive) and the GI50 (RPMI-8226) was < 0.01 µM (active). The GI50 (PC-3) was > 72.6 µM (inactive), the GI50 (SK-MEL-2) was > 100 µM (inactive) and the GI50 (M14) was > 100 µM (inactive). The GI50 (NCI-H23) was > 100 µM (inactive), the GI50 (A549) was > 100 µM (inactive) and the GI50 (DU-145) was > 100 µM (inactive). The GI50 (SK-OV-3) was > 72.3 µM (inactive), the GI50 (NCI/ADR-RES) was > 100 µM (inactive) and the GI50 (TK-10) was > 100 µM (inactive). For the same compound, the GI50 (SW-620) was > 100 µM (inactive), the GI50 (OVCAR-3) was > 100 µM (inactive) and the GI50 (CAKI-1) was > 100 µM (inactive). For the same compound, the GI50 (SNB-75) was > 100 µM (inactive), the GI50 (KM12) was > 100 µM (inactive) and the GI50 (SR) was > 100 µM (inactive). The GI50 (HT-29) was > 100 µM (inactive), the GI50 (LOX IMVI) was > 100 µM (inactive) and the GI50 (HCC 2998) was > 100 µM (inactive). For the same compound, the GI50 (ACHN) was > 100 µM (inactive), the GI50 (SF-539) was > 100 µM (inactive) and the GI50 (OVCAR-5) was > 100 µM (inactive). The GI50 (OVCAR-8) was > 100 µM (inactive), the GI50 (IGROV-1) was > 100 µM (inactive) and the GI50 (UO-31) was > 87.5 µM (inactive). For the same compound, the GI50 (NCI-H460) was > 100 µM (inactive), the GI50 (UACC-62) was > 100 µM (inactive) and the GI50 (UACC-257) was > 89.3 µM (inactive). For the same compound, the GI50 (HCT-15) was > 100 µM, the GI50 (SNB-19) was > 100 µM (inactive) and the GI50 (K562) was > 100 µM (inactive). The GI50 (HOP-92) was > 100 µM (inactive), the GI50 (COLO 205) was > 100 µM (inactive) and the GI50 (Malme-3M) was > 100 µM (inactive). For the same compound, the GI50 (786-0) was > 100 µM (inactive), the GI50 (SK-MEL-28) was > 100 µM (inactive) and the GI50 (BT-549) was > 100 µM (inactive). The GI50 (MDA-MB-231) was > 100 µM (inactive), the GI50 (SF-295) was > 100 µM (inactive) and the GI50 (SK-MEL-5) was > 100 µM (inactive). The GI50 (Hs-578T) was > 100 µM (inactive), the GI50 (MCF7) was > 100 µM (inactive) and the GI50 (RXF 393) was > 100 µM (inactive). For the same compound, the GI50 (SF-268) was > 100 µM (inactive) and the GI50 (EKVX) was > 100 µM (inactive).
For `O=C(NC(Cc1c[nH]c2ccccc12)C(=O)O)/C(=C/c1ccccc1)NC(=O)c1ccccc1` (stereo not drawn), the GI50 (HCT-116) was > 80.4 µM (inactive), the GI50 (MDA-N) was 82.4 µM (inactive) and the GI50 (HOP-62) was 41.3 µM (inactive). The GI50 (MOLT-4) was 51.1 µM (inactive), the GI50 (SN12C) was > 100 µM (inactive) and the GI50 (NCI-H522) was 25.3 µM (inactive). For the same compound, the GI50 (CCRF-CEM) was > 66.4 µM (inactive), the GI50 (OVCAR-4) was 71.1 µM (inactive) and the GI50 (NCI-H226) was > 100 µM (inactive). The GI50 (A498) was > 81.8 µM (inactive), the GI50 (HL-60) was 77.6 µM (inactive) and the GI50 (MDA-MB-435) was 78.9 µM (inactive). The GI50 (T47D) was 36.2 µM (inactive), the GI50 (U-251) was 46.8 µM (inactive) and the GI50 (RPMI-8226) was 32.4 µM (inactive). The GI50 (PC-3) was 50.5 µM (inactive), the GI50 (SK-MEL-2) was 57.5 µM (inactive) and the GI50 (M14) was 46 µM (inactive). For the same compound, the GI50 (NCI-H23) was > 83.2 µM (inactive), the GI50 (A549) was 38.2 µM (inactive) and the GI50 (DU-145) was 79.8 µM (inactive). For the same compound, the GI50 (SK-OV-3) was 54.2 µM (inactive), the GI50 (NCI/ADR-RES) was 36.6 µM (inactive) and the GI50 (TK-10) was > 72.8 µM (inactive). For the same compound, the GI50 (SW-620) was > 100 µM (inactive), the GI50 (OVCAR-3) was 38.4 µM (inactive) and the GI50 (CAKI-1) was > 95.1 µM (inactive). The GI50 (SNB-75) was 32.7 µM (inactive), the GI50 (KM12) was 57.9 µM (inactive) and the GI50 (SR) was > 100 µM (inactive). For the same compound, the GI50 (HT-29) was 66.7 µM (inactive), the GI50 (LOX IMVI) was > 100 µM (inactive) and the GI50 (HCC 2998) was 78.3 µM (inactive). The GI50 (ACHN) was > 94.8 µM (inactive), the GI50 (SF-539) was 49.4 µM (inactive) and the GI50 (OVCAR-5) was 56.1 µM (inactive). For the same compound, the GI50 (OVCAR-8) was 57.5 µM (inactive), the GI50 (IGROV-1) was 32.1 µM (inactive) and the GI50 (UO-31) was 53.2 µM (inactive). The GI50 (NCI-H460) was 68.1 µM (inactive), the GI50 (UACC-62) was 41.2 µM (inactive) and the GI50 (UACC-257) was > 88.7 µM (inactive). The GI50 (HCT-15) was > 55.1 µM, the GI50 (SNB-19) was > 92 µM (inactive) and the GI50 (K562) was 59.7 µM (inactive). For the same compound, the GI50 (HOP-92) was 23.9 µM (inactive), the GI50 (COLO 205) was > 100 µM (inactive) and the GI50 (Malme-3M) was 22.5 µM (inactive). The GI50 (786-0) was > 100 µM (inactive), the GI50 (SK-MEL-28) was > 88.9 µM (inactive) and the GI50 (BT-549) was 43.8 µM (inactive). The GI50 (MDA-MB-231) was > 44.6 µM (inactive), the GI50 (SF-295) was 36.4 µM (inactive) and the GI50 (SK-MEL-5) was 37 µM (inactive). For the same compound, the GI50 (Hs-578T) was 28.5 µM (inactive), the GI50 (MCF7) was 50 µM (inactive) and the GI50 (RXF 393) was 34.8 µM (inactive). The GI50 (SF-268) was > 100 µM (inactive) and the GI50 (EKVX) was 42.7 µM (inactive).
